Assay results from patent US9969698B2, “Quinoxalinyl-piperazinamide methods of use” (REXAHN PHARMACEUTICALS, INC., priority 2015, dated 2018).
Like-named read-outs stand apart in the source and are kept apart here.

Experiments:
CYP3A4 = CYP3A4 (Homo sapiens, UniProt P08684); assay: Loss of RX-5902 after incubation with expressed CYP450 isozyme; type: in vitro ADME; details: 30-minute incubation with expressed CYP3A4
Method: (§1) Two in vitro studies were performed to examine the involvement of specific cytochrome P450 (CYP450) isozymes in the in vitro metabolism of RX-5902. In the first study, the loss of RX-5902 was measured after incubation with expressed CYP450 isozymes (1A2, 2A6, 2B6, 2C8, 2C9, 2C19, 2D6, 3A4 and 3A5). […] In the second study, RX-5902 was incubated with pooled human liver microsomes in the presence of CYP450 isozyme-selective chemical inhibitors. The inhibitors tested were selective for 1A2, 2A6, 2B6, 2C8, 2C9, 2C19, 2D6, and 3A4/5.

CYP3A5 = CYP3A5 (Homo sapiens, UniProt P20815); assay: as above; type: in vitro ADME; details: 30-minute incubation with expressed CYP3A5
Method: as §1

[1] = Human safety and tolerability, dose-ranging study; type: in vivo; details: oral capsules
Method: In a dose-ranging study, the pharmacokinetics (PK), safety and tolerability of RX-5902 at various oral doses were evaluated. Subjects with advanced or metastatic solid tumors were administered capsules containing RX-5902 at daily doses of 25-775 mg once weekly, 250-300 mg three times a week, 150-300 mg five times a week, or 300-350 mg seven times a week of RX-5902 for up to 6 dosing cycles. Each cycle consisting of 1-5 doses of RX-5902 per week for 3 weeks followed by 1 week of rest, or 5-7 doses of RX-5902 per week for 4 weeks without any rest per 4-week cycle. All but one subject had fasted from food for at least 8 hours before administration. One subject received 300 mg RX-5902 in fed state. Plasma concentrations were measured on Days 1 and 15, for 48 hrs, using a validated LC-MS/MS assay, and noncompartmental pharmacokinetic parameters were calculated using Phoenix WinNonlin, Version 6.4.

[2] = Solubility assessment in solvents; type: physicochemical; details: organic solvent or mixture, thermodynamic from solid
Method: RX-5902 (ca. 2 mg) was weighed in a 1.5 ml clear glass vials. An aliquot of the corresponding solvent or solvent mixture was added at RT and solubility was assessed after 10 min as shown in Table 12. Solutions and suspensions were then placed into a shaking chamber at 50° C. for 10 more minutes. If no dissolution was observed, another aliquot of solvent was added and samples were placed in the shaking chamber at 50° C. for 10 more minutes. This procedure was repeated until dissolution was achieved or a maximum of 400 vol was added.

Sequence of CYP3A4 (P08684 whole entry): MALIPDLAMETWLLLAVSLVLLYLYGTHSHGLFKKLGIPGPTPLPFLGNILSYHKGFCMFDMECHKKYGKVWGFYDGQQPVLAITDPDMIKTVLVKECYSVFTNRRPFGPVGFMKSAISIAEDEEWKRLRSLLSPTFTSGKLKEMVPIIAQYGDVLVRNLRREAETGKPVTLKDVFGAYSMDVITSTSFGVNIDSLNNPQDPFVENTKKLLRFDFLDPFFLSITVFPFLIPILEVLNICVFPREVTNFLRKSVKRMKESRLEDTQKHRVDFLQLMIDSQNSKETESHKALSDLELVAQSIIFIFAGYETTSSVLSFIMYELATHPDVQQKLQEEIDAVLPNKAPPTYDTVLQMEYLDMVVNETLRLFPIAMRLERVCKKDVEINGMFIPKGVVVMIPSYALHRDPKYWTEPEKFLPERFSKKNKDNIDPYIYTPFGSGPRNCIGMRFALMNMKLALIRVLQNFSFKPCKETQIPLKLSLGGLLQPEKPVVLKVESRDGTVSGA
Sequence of CYP3A5 (P20815 whole entry): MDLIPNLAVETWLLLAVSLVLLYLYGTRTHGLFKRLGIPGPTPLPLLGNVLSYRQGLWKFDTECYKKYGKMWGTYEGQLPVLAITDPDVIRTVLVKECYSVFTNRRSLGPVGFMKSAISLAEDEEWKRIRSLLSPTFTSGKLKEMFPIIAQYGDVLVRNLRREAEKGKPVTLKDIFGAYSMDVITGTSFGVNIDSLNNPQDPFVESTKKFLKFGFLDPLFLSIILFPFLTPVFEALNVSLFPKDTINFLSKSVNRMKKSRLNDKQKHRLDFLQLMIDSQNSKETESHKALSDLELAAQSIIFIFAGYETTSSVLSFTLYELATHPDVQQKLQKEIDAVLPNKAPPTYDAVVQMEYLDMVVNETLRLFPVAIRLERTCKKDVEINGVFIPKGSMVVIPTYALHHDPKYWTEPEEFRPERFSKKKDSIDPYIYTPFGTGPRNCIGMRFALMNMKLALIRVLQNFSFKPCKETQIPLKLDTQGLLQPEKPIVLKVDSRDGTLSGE

For COc1cc(OC)cc(N2CCN(C(=O)Nc3nc4cc(F)ccc4nc3OC)CC2)c1 [RX-5902, 4-(3,5-dimethoxyphenyl)-N-(7-fluoro-3-methoxyquinoxalin-2-yl)piperazine-1-carboxamide], which “loss of RX-5902” value (CYP3A4) is on record?
Its value is 87%.

What about the “loss of RX-5902” value (CYP3A5) of the same compound?
Its value is 54%.

What about the “most frequently reported adverse events” value ([1]; 25-775 mg) of the same compound?
The value was “mild nausea, vomiting and fatigue”.

What about the tolerability ([1]; at the tested dose levels (25-775 mg)) of the same compound?
Its tolerability is “well tolerated”.

What about the solubility at 10 min ([2]; DMSO, 50 °C, read-out: Solubility at 50° C.) of the same compound?
Its solubility at 10 min is ≥ 100 mg/mL.

What about the solubility at 10 min ([2]; DMSO, read-out: Solubility at RT) of the same compound?
The solubility at 10 min was < 100 mg/mL.

And the solubility at 10 min ([2]; MEK, 50 °C, read-out: Solubility at 50° C.)?
The solubility at 10 min was ≥ 12.5 mg/mL.

And the solubility at 10 min ([2]; MEK, read-out: Solubility at RT)?
The solubility at 10 min was < 100 mg/mL.

What about the solubility at 10 min ([2]; MIBK, 50 °C, read-out: Solubility at 50° C.) of the same compound?
Its solubility at 10 min is ≥ 6.25 mg/mL.

And the solubility at 10 min ([2]; MIBK, read-out: Solubility at RT)?
The solubility at 10 min was < 100 mg/mL.

What about the solubility at 10 min ([2]; THF, 50 °C, read-out: Solubility at 50° C.) of the same compound?
The solubility at 10 min was ≥ 25 mg/mL.

What about the solubility at 10 min ([2]; THF, read-out: Solubility at RT) of the same compound?
Its solubility at 10 min is < 100 mg/mL.

And the solubility at 10 min ([2]; acetone, 50 °C, read-out: Solubility at 50° C.)?
The solubility at 10 min was ≥ 12.5 mg/mL.

What about the solubility at 10 min ([2]; acetone, read-out: Solubility at RT) of the same compound?
The solubility at 10 min was < 100 mg/mL.

What about the solubility at 10 min ([2]; acetonitrile, 50 °C, read-out: Solubility at 50° C.) of the same compound?
Its solubility at 10 min is ≥ 12.5 mg/mL.

What about the solubility at 10 min ([2]; acetonitrile, read-out: Solubility at RT) of the same compound?
Its solubility at 10 min is < 100 mg/mL.

And the solubility at 10 min ([2]; ethanol, 50 °C, read-out: Solubility at 50° C.)?
Its solubility at 10 min is ≥ 2.5 mg/mL.

And the solubility at 10 min ([2]; ethanol, read-out: Solubility at RT)?
Its solubility at 10 min is < 100 mg/mL.

And the solubility at 10 min ([2]; ethyl acetate, 50 °C, read-out: Solubility at 50° C.)?
Its solubility at 10 min is ≥ 12.5 mg/mL.

And the solubility at 10 min ([2]; ethyl acetate, read-out: Solubility at RT)?
Its solubility at 10 min is < 100 mg/mL.

What about the solubility at 10 min ([2]; isopropanol-10% water, 50 °C, read-out: Solubility at 50° C.) of the same compound?
The solubility at 10 min was ≥ 2.5 mg/mL.

What about the solubility at 10 min ([2]; isopropanol-10% water, read-out: Solubility at RT) of the same compound?
Its solubility at 10 min is < 100 mg/mL.

What about the solubility at 10 min ([2]; methanol, 50 °C, read-out: Solubility at 50° C.) of the same compound?
The solubility at 10 min was ≥ 2.5 mg/mL.

And the solubility at 10 min ([2]; methanol, read-out: Solubility at RT)?
The solubility at 10 min was < 100 mg/mL.
